How the values were obtained:
Assay in all cases: Test B pre-/postemergence plant response
Assay type in all cases: in vivo
[1] = test system: wheat (Triticum aestivum)
Method in brief: (§1)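 Visual scoring from 0 (no effect) to 100 (complete control) against untreated controls was done 13 to 15 days after greenhouse treatment. Chemicals were formulated in a surfactant-containing non-phytotoxic solvent and applied to soil preemergence or to 1- to 4-leaf (2-18 cm) plants postemergence.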

[2] = test system: large crabgrass (Digitaria sanguinalis)
Method in brief: as §1

[3] = test system: goosegrass (Eleusine indica)
Method in brief: as §1

soybean (Glycine max) = test system: soybean (Glycine max)
Method in brief: as §1

[4] = test system: common (oilseed) sunflower (Helianthus annuus); conditions: Preemergence
Method in brief: as §1

corn (Zea mays) = test system: corn (Zea mays)
Method in brief: as §1

[5] = test system: Russian thistle (Salsola iberica); conditions: Preemergence
Method in brief: as §1

[6] = test system: lambsquarters (Chenopodium album)
Method in brief: as §1

[7] = test system: surinam grass (Brachiaria decumbens)
Method in brief: as §1

[8] = test system: bermudagrass (Cynodon dactylon)
Method in brief: as §1

kochia (Kochia scoparia) = conditions: for Kochia plant response rating: postemergence, 0-100 scale; for Plant response rating, Kochia: Postemergence
Method in brief: as §1

[9] = test system: common ragweed (Ambrosia elation)
Method in brief: as §1

[10] = test system: cocklebur (Xanthium strumarium)
Method in brief: as §1

[11] = 8 g ai/ha, postemergence, 0-100 scale
[12] = 16 g ai/ha, postemergence, 0-100 scale
[13] = Postemergence, 31 g ai/ha, scale 0 to 100
[14] = Postemergence, 62 g ai/ha, scale 0 to 100, 0 no effect, 100 complete control
[15] = Preemergence, 31 g ai/ha, scale 0 to 100 (0 no effect, 100 complete control)
[16] = Preemergence, 62 g ai/ha, 0 to 100 scale, 0 no effect, 100 complete control
[17] = Preemergence, 16 g ai/ha, scale 0 to 100
[18] = Postemergence, 16 g ai/ha, scale 0 to 100
[19] = Preemergence, 8 g ai/ha, scale 0 to 100
[20] = 31 g ai/ha, scale 0 to 100 (0 no effect, 100 complete control)
[21] = 62 g ai/ha, 0 to 100 scale, 0 no effect, 100 complete control
[22] = Preemergence, 8 g ai/ha, scale 0 to 100 (0 no effect, 100 complete control)
[23] = Preemergence, 16 g ai/ha, scale 0 to 100 (0 no effect, 100 complete control)
[24] = 8 g ai/ha, scale 0 to 100 (0 no effect, 100 complete control)

CCc1cc(-c2ccc(Br)cc2)nn1-c1c(O)c(C)nn(C)c1=O [Compound 74]
Wheat plant response rating [1, 11]: 40 | Wheat plant response rating [1, 12]: 70 | Plant response rating, Wheat [1, 13]: 90 | Plant response rating, Wheat [1, 14]: 95 | Plant response rating, Wheat [1, 15]: 25 | Plant response rating, Wheat [1, 16]: 85 | Wheat plant response rating [1, 17]: 0 | Crabgrass, Large plant response rating [2, 11]: 80 | Plant response rating, Crabgrass, Large [2, 18]: 90 | Plant response rating, Crabgrass, Large [2, 13]: 98 | Plant response rating, Crabgrass, Large [2, 14]: 100 | Plant response rating, Crabgrass, Large [2, 15]: 100 | Plant response rating, Crabgrass, Large [2, 16]: 100 | Crabgrass, Large plant response rating [2, 19]: 65 | Crabgrass, Large plant response rating [2, 17]: 95 | Goosegrass plant response rating [3, 11]: 60 | Goosegrass plant response rating [3, 12]: 65 | Plant response rating, Goosegrass [3, 13]: 75 | Plant response rating, Goosegrass [3, 14]: 85 | Plant response rating, Goosegrass [3, 15]: 100 | Plant response rating, Goosegrass [3, 16]: 100 | Goosegrass plant response rating [3, 19]: 95 | Goosegrass plant response rating [3, 17]: 98 | Soybean plant response rating (soybean (Glycine max); [11]): 0 | Soybean plant response rating (soybean (Glycine max); [12]): 0 | Plant response rating, Soybean (soybean (Glycine max); [13]): 0 | Plant response rating, Soybean (soybean (Glycine max); [14]): 0 | Plant response rating, Soybean (soybean (Glycine max); [15]): 0 | Plant response rating, Soybean (soybean (Glycine max); [16]): 0 | Soybean plant response rating (soybean (Glycine max); [19]): 0 | Soybean plant response rating (soybean (Glycine max); [17]): 0 | Plant response rating, Sunflower [4, 20]: 0 | Plant response rating, Sunflower [4, 21]: 0 | Sunflower plant response rating ([4]; 8 g ai/ha, scale 0 to 100): 0 | Sunflower plant response rating ([4]; 16 g ai/ha, scale 0 to 100): 0 | Corn plant response rating (corn (Zea mays); [11]): 98 | Plant response rating, Corn (corn (Zea mays); [18]): 100 | Plant response rating, Corn (corn (Zea mays); [13]): 100 | Plant response rating, Corn (corn (Zea mays); [14]): 100 | Plant response rating, Corn (corn (Zea mays); [15]): 90 | Plant response rating, Corn (corn (Zea mays); [16]): 98 | Corn plant response rating (corn (Zea mays); [19]): 75 | Corn plant response rating (corn (Zea mays); [17]): 80 | Plant response rating, Russian Thistle [5, 20]: 0 | Plant response rating, Russian Thistle [5, 21]: 0 | Russian Thistle plant response rating ([5]; 8 g ai/ha, scale 0 to 100): 0 | Russian Thistle plant response rating ([5]; 16 g ai/ha, scale 0 to 100): 0 | Lambsquarters plant response rating [6, 11]: 0 | Lambsquarters plant response rating [6, 12]: 0 | Plant response rating, Lambsquarters [6, 13]: 0 | Plant response rating, Lambsquarters [6, 14]: 0 | Plant response rating, Lambsquarters [6, 15]: 0 | Plant response rating, Lambsquarters [6, 16]: 20 | Lambsquarters plant response rating [6, 19]: 0 | Lambsquarters plant response rating [6, 17]: 0 | Surinam Grass plant response rating [7, 11]: 85 | Surinam Grass plant response rating [7, 12]: 100 | Plant response rating, Surinam Grass [7, 13]: 100 | Plant response rating, Surinam Grass [7, 14]: 100 | Plant response rating, Surinam Grass [7, 15]: 100 | Plant response rating, Surinam Grass [7, 16]: 100 | Surinam Grass plant response rating [7, 19]: 100 | Surinam Grass plant response rating [7, 17]: 100 | Bermudagrass plant response rating [8, 11]: 20 | Plant response rating, Bermudagrass [8, 18]: 85 | Plant response rating, Bermudagrass [8, 13]: 95 | Plant response rating, Bermudagrass [8, 14]: 98 | Bermudagrass plant response rating [8, 22]: 100 | Plant response rating, Bermudagrass [8, 23]: 100 | Plant response rating, Bermudagrass [8, 15]: 100 | Plant response rating, Bermudagrass [8, 16]: 100 | Kochia plant response rating (kochia (Kochia scoparia); 8 g ai/ha): 0 | Kochia plant response rating (kochia (Kochia scoparia); 16 g ai/ha): 0 | Plant response rating, Kochia (kochia (Kochia scoparia); 31 g ai/ha, scale 0 to 100): 0 | Plant response rating, Kochia (kochia (Kochia scoparia); 62 g ai/ha, scale 0 to 100, 0 no effect, 100 complete control): 0 | Ragweed plant response rating [9, 11]: 0 | Ragweed plant response rating [9, 12]: 0 | Plant response rating, Ragweed [9, 13]: 0 | Plant response rating, Ragweed [9, 14]: 0 | Plant response rating, Ragweed [9, 15]: 0 | Plant response rating, Ragweed [9, 16]: 0 | Ragweed plant response rating [9, 19]: 0 | Ragweed plant response rating [9, 17]: 0 | Cocklebur plant response rating [10, 11]: 0 | Plant response rating, Cocklebur [10, 18]: 0 | Plant response rating, Cocklebur [10, 13]: 0 | Plant response rating, Cocklebur [10, 14]: 0 | Plant response rating, Cocklebur [10, 23]: 0 | Plant response rating, Cocklebur [10, 15]: 0 | Plant response rating, Cocklebur [10, 16]: 0 | Cocklebur plant response rating [10, 19]: 0

COc1nn(C)c(=O)c(-n2nc(-c3ccc(Br)cc3)cc2C)c1O [Compound 82]
Wheat plant response rating [1, 11]: 85 | Wheat plant response rating [1, 12]: 98 | Plant response rating, Wheat [1, 13]: 100 | Plant response rating, Wheat [1, 14]: 100 | Wheat plant response rating [1, 22]: 0 | Plant response rating, Wheat [1, 15]: 98 | Plant response rating, Wheat [1, 16]: 100 | Wheat plant response rating [1, 17]: 65 | Crabgrass, Large plant response rating [2, 11]: 100 | Crabgrass, Large plant response rating [2, 12]: 100 | Plant response rating, Crabgrass, Large [2, 13]: 100 | Plant response rating, Crabgrass, Large [2, 14]: 100 | Crabgrass, Large plant response rating [2, 22]: 95 | Plant response rating, Crabgrass, Large [2, 15]: 100 | Plant response rating, Crabgrass, Large [2, 16]: 100 | Crabgrass, Large plant response rating [2, 17]: 98 | Goosegrass plant response rating [3, 11]: 60 | Goosegrass plant response rating [3, 12]: 65 | Plant response rating, Goosegrass [3, 13]: 85 | Plant response rating, Goosegrass [3, 14]: 90 | Goosegrass plant response rating [3, 22]: 95 | Plant response rating, Goosegrass [3, 15]: 98 | Plant response rating, Goosegrass [3, 16]: 100 | Goosegrass plant response rating [3, 17]: 98 | Soybean plant response rating (soybean (Glycine max); [11]): 0 | Soybean plant response rating (soybean (Glycine max); [12]): 45 | Plant response rating, Soybean (soybean (Glycine max); [13]): 55 | Plant response rating, Soybean (soybean (Glycine max); [14]): 70 | Soybean plant response rating (soybean (Glycine max); [22]): 0 | Plant response rating, Soybean (soybean (Glycine max); [15]): 20 | Plant response rating, Soybean (soybean (Glycine max); [16]): 100 | Soybean plant response rating (soybean (Glycine max); [17]): 0 | Sunflower plant response rating [4, 24]: 0 | Plant response rating, Sunflower [4, 20]: 70 | Plant response rating, Sunflower [4, 21]: 85 | Sunflower plant response rating ([4]; 16 g ai/ha, scale 0 to 100): 60 | Corn plant response rating (corn (Zea mays); [11]): 40 | Corn plant response rating (corn (Zea mays); [12]): 100 | Plant response rating, Corn (corn (Zea mays); [13]): 100 | Plant response rating, Corn (corn (Zea mays); [14]): 100 | Corn plant response rating (corn (Zea mays); [22]): 95 | Plant response rating, Corn (corn (Zea mays); [15]): 98 | Plant response rating, Corn (corn (Zea mays); [16]): 98 | Corn plant response rating (corn (Zea mays); [17]): 95 | Russian Thistle plant response rating [5, 24]: 0 | Plant response rating, Russian Thistle [5, 20]: 0 | Plant response rating, Russian Thistle [5, 21]: 0 | Russian Thistle plant response rating ([5]; 16 g ai/ha, scale 0 to 100): 0 | Lambsquarters plant response rating [6, 11]: 0 | Lambsquarters plant response rating [6, 12]: 0 | Plant response rating, Lambsquarters [6, 13]: 0 | Plant response rating, Lambsquarters [6, 14]: 0 | Lambsquarters plant response rating [6, 22]: 0 | Plant response rating, Lambsquarters [6, 15]: 100 | Plant response rating, Lambsquarters [6, 16]: 100 | Lambsquarters plant response rating [6, 17]: 0 | Surinam Grass plant response rating [7, 11]: 75 | Surinam Grass plant response rating [7, 12]: 95 | Plant response rating, Surinam Grass [7, 13]: 100 | Plant response rating, Surinam Grass [7, 14]: 100 | Surinam Grass plant response rating [7, 22]: 80 | Plant response rating, Surinam Grass [7, 15]: 95 | Plant response rating, Surinam Grass [7, 16]: 100 | Surinam Grass plant response rating [7, 17]: 85 | Bermudagrass plant response rating [8, 11]: 98 | Bermudagrass plant response rating [8, 12]: 100 | Plant response rating, Bermudagrass [8, 13]: 100 | Plant response rating, Bermudagrass [8, 14]: 100 | Bermudagrass plant response rating [8, 22]: 90 | Bermudagrass plant response rating [8, 23]: 100 | Plant response rating, Bermudagrass [8, 15]: 100 | Plant response rating, Bermudagrass [8, 16]: 100 | Ragweed plant response rating [9, 11]: 20 | Ragweed plant response rating [9, 12]: 40 | Plant response rating, Ragweed [9, 13]: 65 | Plant response rating, Ragweed [9, 14]: 85 | Ragweed plant response rating [9, 22]: 0 | Plant response rating, Ragweed [9, 15]: 50 | Plant response rating, Ragweed [9, 16]: 80 | Ragweed plant response rating [9, 17]: 20 | Cocklebur plant response rating [10, 11]: 0 | Cocklebur plant response rating [10, 12]: 0 | Plant response rating, Cocklebur [10, 13]: 0 | Plant response rating, Cocklebur [10, 14]: 20 | Cocklebur plant response rating [10, 22]: 0 | Plant response rating, Cocklebur [10, 15]: 0 | Plant response rating, Cocklebur [10, 16]: 35 | Cocklebur plant response rating [10, 17]: 0

From patent US20100267561A1, “HERBICIDAL PYRIDAZINONE DERIVATIVES” (priority 2007, published 2010)
